Laboratory results published in article PMC7673538 (PLoS Biology, 2020).
“And” between values parts separate entries of the source, which are not always exact repeats. Equal values may be shown once. Read-outs that look alike come from different tables or passages of the source.

What was measured:
Rluc-CV-B3 = format: cell-based; details: Fig 3B
EV-A71 = assay: microbe, parasite or virus in culture; format: cell-based, enterovirus A71; details: for EC50: Enterovirus A
EV-D68 (strain Fermon) = format: cell-based, enterovirus D68
[1] = system: all representative viruses; format: cell-based
CV-B3 (strain Nancy) = format: cell-based, coxsackievirus B3
CV-A24 = assay: microbe, parasite or virus in culture; format: cell-based, coxsackievirus A24
[2] = EVA71, HeLa R19, read-out: EC50 EV-A71
[3] = EVA71, HeLa R19, read-out: EC50 EV-A71 strain BrCr
[4] = EVA71, HeLa R19, read-out: EC50 EV-A71 strain TW/2728/04
[5] = EVA71, HeLa R19, read-out: EC50 EV-A71 strain TW/2945/98
[6] = EVA71, HeLa R19, read-out: EC50 EV-A71 strain TW/70811/08
[7] = EVA71, HeLa R19, read-out: EC50 EV-A71 strain TW/72232/04
[8] = EVA71, HeLa R19, read-out: EC50 EV-A71 strain TW/96016/08
[9] = Enterovirus C, CVA24, HeLa R19, read-out: EC50 CV-A24
[10] = Enterovirus C, CVA24, HeLa R19, read-out: EC50 CV-A24 strain Joseph

Compound	Figure 7 dose-response raw data, EV-A71 (triplicate values) (EV-A71; Concentration 0.0046 µM)	Figure 7 dose-response raw data, EV-A71 (triplicate values) (EV-A71; Concentration 0.0137 µM)	Figure 7 dose-response raw data, EV-A71 (triplicate values) (EV-A71; Concentration 0.0412 µM)	Figure 7 dose-response raw data, EV-A71 (triplicate values) (EV-A71; Concentration 0.1235 µM)	Figure 7 dose-response raw data, EV-A71 (triplicate values) (EV-A71; Concentration 0.3704 µM)	Figure 7 dose-response raw data, EV-A71 (triplicate values) (EV-A71; Concentration 1.1111 µM)	Figure 7 dose-response raw data, EV-A71 (triplicate values) (EV-A71; Concentration 3.3333 µM)	Figure 7 dose-response raw data, EV-A71 (triplicate values) (EV-A71; Concentration 11.1111 µM)	Figure 7 dose-response raw data, EV-A71 (triplicate values) (EV-A71; Concentration 33.3333 µM)	Figure 7 dose-response raw data, EV-A71 (triplicate values) (EV-A71; Concentration 100 µM)	EC50 (EV-A71; [2]) [µM]	EC50 (EV-A71; [3]) [µM]	EC50 (EV-A71; [4]) [µM]	EC50 (EV-A71; [5]) [µM]	EC50 (EV-A71; [6]) [µM]	EC50 (EV-A71; [7]) [µM]	EC50 (EV-A71; [8]) [µM]	virus titer, TCID50/ml (Figure 2A) (EV-D68 (strain Fermon); compound concentration 3 µM)	virus titer, TCID50/ml (Figure 2A) (EV-D68 (strain Fermon); compound concentration 100 µM)	EC50 (CV-A24; [9]) [µM]	further results
COc1ccc(N(Cc2ccc(F)cc2)C(=O)c2cc[nH]c2)cc1 [Compound 12a, N-(4-Fluorobenzyl)-N-(4-methoxyphenyl)-1H-pyrrole-3-carboxamide]	12.3336 and 15.0352 and 19.2639	12.3336 and 12.2161 and 11.2764	12.0987 and 12.2161 and 13.2733	11.9812 and 14.0955 and 13.6257	12.5685 and 16.7972 and 13.6257	12.3336 and 15.0352 and 19.2639	12.3336 and 15.0352 and 19.2639	119.819 and 116.746 and 110.126	119.701 and 118.637 and 111.781	110.819 and 116.746 and 120.126	4.03 ± 0.73	4.48 ± 0.42	8.33 ± 0.65	9.17 ± 0.41	8.18 ± 0.61	6.41 ± 2.09	9.47 ± 0.04	21379.6 TCID50/ml and 35481.3 TCID50/ml and 31622.8 TCID50/ml	31622.8 TCID50/ml and 21379.6 TCID50/ml and 35481.3 TCID50/ml	3.51 ± 0.22	resistance profile against Rluc-CV-B3 2C mutants (in words) (Rluc-CV-B3): resembled that of the parental compound 1 and (S)-fluoxetine; virus titer, TCID50/ml (Figure 2A) (EV-D68 (strain Fermon); compound concentration 0.01 µM): 6000000 TCID50/ml and 4677352 TCID50/ml; virus titer, TCID50/ml (Figure 2A) (EV-D68 (strain Fermon); compound concentration 0.1 µM): 7000000 TCID50/ml and 4677352 TCID50/ml and 8000000 TCID50/ml; cytotoxic effect in parallel to single-cycle assay (in words) (HeLa R19 cells): none of them showed any cytotoxic effect; inhibition in single-cycle viral replication assay (in words) [1]: inhibited all representative viruses; virus titer, TCID50/ml (Figure 2A) (CV-B3 (strain Nancy); compound concentration 0.001 µM): 316227800 TCID50/ml and 467735100 TCID50/ml; virus titer, TCID50/ml (Figure 2A) (CV-B3 (strain Nancy); compound concentration 0.01 µM): 467735100 TCID50/ml and 316227800 TCID50/ml; EC50 (CV-A24; Enterovirus C, CVA24, HeLa R19, read-out: EC50 Average): 3.46 µM; EC50 (CV-A24; [10]): 3.45 ± 0.42 µM; EC50 (CV-A24; Enterovirus C, CVA24, HeLa R19, read-out: EC50 Exp1): 3.29 µM; EC50 (CV-A24; Enterovirus C, CVA24, HeLa R19, read-out: EC50 Exp2): 3.73 µM; EC50 (CV-A24; read-out: EC50 Exp1): 3.04 µM; EC50 (CV-A24; read-out: EC50 Exp2): 3.87 µM
COc1ccc(N(Cc2ccc(F)cc2)C(=O)c2ccco2)cc1 [Compound 1, N-(4-fluorobenzyl)-N-(4-methoxyphenyl)furan-2-carboxamide]	12.0987 and 12.2161 and 13.2733	11.5913 and 20.0727 and 21.6478	13.4087 and 20.6785 and 25.0404	12.0987 and 12.2161 and 13.2733	11.5913 and 20.0727 and 21.6478	13.4087 and 20.6785 and 25.0404	12.0987 and 12.2161 and 13.2733	11.5913 and 20.0727 and 21.6478	13.4087 and 20.6785 and 25.0404	11.5913 and 20.0727 and 21.6478	> 30	> 30	> 30	> 30	> 30	> 30	> 30	31622.8 TCID50/ml and 21379.6 TCID50/ml and 35481.3 TCID50/ml	31622.8 TCID50/ml and 21379.6 TCID50/ml and 35481.3 TCID50/ml	> 30	EC50 (EV-A71; EVA71, HeLa R19, read-out: EC50 EV-A71 Average): > 30 µM; EC50 (EV-A71; EVA71, HeLa R19, read-out: EC50 EV-A71 Experiement 3): > 30 µM; EC50 (EV-A71; EVA71, HeLa R19, read-out: EC50 EV-A71 Experiment 1): > 30 µM; EC50 (EV-A71; EVA71, HeLa R19, read-out: EC50 EV-A71 Experiment 2): > 30 µM; virus titer, TCID50/ml (Figure 2A) (EV-D68 (strain Fermon); compound concentration 10 µM): 31622.8 TCID50/ml and 21379.6 TCID50/ml and 35481.3 TCID50/ml; virus titer, TCID50/ml (Figure 2A) (CV-B3 (strain Nancy); compound concentration 1 µM): 1000000000 TCID50/ml; virus titer, TCID50/ml (Figure 2A) (CV-B3 (strain Nancy); compound concentration 10 µM): 31622.8 TCID50/ml and 16982.4 TCID50/ml and 21379.6 TCID50/ml; EC50 (CV-A24; Enterovirus C, CVA24, HeLa R19, read-out: EC50 CV-A24 Average): > 30 µM; EC50 (CV-A24; Enterovirus C, CVA24, HeLa R19, read-out: EC50 CV-A24 Experiement 3): > 30 µM; EC50 (CV-A24; Enterovirus C, CVA24, HeLa R19, read-out: EC50 CV-A24 Experiment 1): > 30 µM; EC50 (CV-A24; Enterovirus C, CVA24, HeLa R19, read-out: EC50 CV-A24 Experiment 2): > 30 µM; EC50 (CV-A24; [10]): > 30 µM
